Article PMC4824473, “Dose-Response Analysis of Chemotactic Signaling Response in Salmonella typhimurium LT2 upon Exposure to Cysteine / Cystine Redox Pair” (PLoS ONE, 2016)

Molecular target: T1, Tar (Salmonella enterica, UniProt P02941)
T1 construct: native chromosomal full-length receptor, homodimer in mixed receptor arrays; strain TSS868 (LT2 delta-tsr delta-cheY delta-cheZ) with CheZ-CFP/CheY-YFP plasmid pVS88; other native receptors present
Assay: in vivo CheZ-CFP/CheY-YFP FRET of receptor-kinase activity, Hill fit
Format: cell-based
Conditions: live delta-tsr cells, motility buffer pH 7.0, room temperature; attractant; Hill coefficient 1.5; other receptors present; about 1% of Cys possibly oxidized to cystine; read-out: half maximum

T1 sequence (P02941 whole entry): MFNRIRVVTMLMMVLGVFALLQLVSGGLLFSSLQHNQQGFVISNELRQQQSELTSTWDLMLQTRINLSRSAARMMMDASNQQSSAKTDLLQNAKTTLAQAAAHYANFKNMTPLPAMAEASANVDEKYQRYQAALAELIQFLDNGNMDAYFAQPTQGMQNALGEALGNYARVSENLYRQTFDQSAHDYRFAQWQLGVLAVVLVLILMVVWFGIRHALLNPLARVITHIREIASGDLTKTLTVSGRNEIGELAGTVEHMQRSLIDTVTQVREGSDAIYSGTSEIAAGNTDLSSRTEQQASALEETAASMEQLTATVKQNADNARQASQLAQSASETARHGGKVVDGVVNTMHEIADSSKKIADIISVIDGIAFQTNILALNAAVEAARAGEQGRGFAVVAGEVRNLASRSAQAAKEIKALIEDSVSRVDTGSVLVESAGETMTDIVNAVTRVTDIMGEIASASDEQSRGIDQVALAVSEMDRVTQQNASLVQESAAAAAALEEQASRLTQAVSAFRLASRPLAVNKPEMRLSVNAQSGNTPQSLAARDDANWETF

## N[C@@H](CS)C(=O)O [Cys]
  EC50: 128 µM
